Test results as given in ChEMBL document CHEMBL2021790, “Pyridone methylsulfone hydroxamate LpxC inhibitors for the treatment of serious gram-negative infections” (J Med Chem, 2012).
Converted amounts (≈) assume the structure as drawn.

What was measured:
[1] = system: Pseudomonas aeruginosa; assay: Antimicrobial activity against wild type Pseudomonas aeruginosa PA01 after 16 to 20 hrs by 2-fold microbroth dilution method; assay type: functional
[2] = biological target: T1, UDP-3-O-acyl-N-acetylglucosamine deacetylase (Pseudomonas aeruginosa (strain ATCC 15692 / PAO1 / 1C / PRS 101 / LMG12228), UniProt P47205); assay: Inhibition of Pseudomonas aeruginosa LpxC expressed in Escherichia coli using UDP-3-O-N-acetylglucosamine substrate measured after 30 mins by mass spectrometry
T1 sequence (P47205 whole entry): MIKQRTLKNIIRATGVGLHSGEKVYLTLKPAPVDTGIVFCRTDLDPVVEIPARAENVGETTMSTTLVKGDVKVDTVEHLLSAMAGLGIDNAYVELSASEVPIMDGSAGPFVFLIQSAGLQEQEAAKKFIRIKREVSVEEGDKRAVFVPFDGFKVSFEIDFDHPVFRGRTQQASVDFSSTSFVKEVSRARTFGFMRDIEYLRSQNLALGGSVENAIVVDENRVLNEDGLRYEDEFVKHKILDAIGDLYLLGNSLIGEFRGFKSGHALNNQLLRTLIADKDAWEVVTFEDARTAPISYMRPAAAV

[3] = system: Pseudomonas aeruginosa; assay: Antimicrobial activity against Pseudomonas aeruginosa PA3919 with (delta(mexAB-OprM)delta(mexXY)delta(MexZ) phenotype after 16 to 20 hrs by 2-fold microbroth dilution method; assay type: functional
[4] = system: Acinetobacter sp.; assay: Antimicrobial activity against Acinetobacter sp. after 16 to 20 hrs by 2-fold microbroth dilution method; assay type: functional
[5] = system: Pseudomonas aeruginosa; assay: microbe, parasite or virus in culture
Description: Antimicrobial activity against Pseudomonas aeruginosa after 16 to 20 hrs by 2-fold microbroth dilution method

[6] = system: Klebsiella pneumoniae; assay: microbe, parasite or virus in culture
Description: Antimicrobial activity against Klebsiella pneumoniae after 16 to 20 hrs by 2-fold microbroth dilution method

[7] = system: Klebsiella aerogenes; assay: microbe, parasite or virus in culture
Description: Antimicrobial activity against Enterobacter aerogenes after 16 to 20 hrs by 2-fold microbroth dilution method

[8] = system: Citrobacter freundii; assay: microbe, parasite or virus in culture
Description: Antimicrobial activity against Citrobacter freundii after 16 to 20 hrs by 2-fold microbroth dilution method

[9] = system: Escherichia coli; assay: microbe, parasite or virus in culture
Description: Antimicrobial activity against Escherichia coli after 16 to 20 hrs by 2-fold microbroth dilution method

Structure (SMILES) | MIC [1] [µg/mL] | IC50 [2] [nM] | MIC [3] [µg/mL] | MIC90 [4] [µg/mL] | MIC90 [5] [µg/mL] | MIC90 [6] [µg/mL] | MIC90 [7] [µg/mL] | MIC90 [8] [µg/mL] | MIC90 [9] [µg/mL]
COc1ncc(-c2ccc(-c3ccn(CC[C@](C)(C(=O)NO)S(C)(=O)=O)c(=O)c3)cc2)cn1 | 0.5 (≈ 1.06 µM) | 2 | 0.03 (≈ 0.0635 µM) | – | – | – | – | – | –
Cc1c(-c2ccccc2)ccn(CC[C@](C)(C(=O)NO)S(C)(=O)=O)c1=O | 0.5 (≈ 1.32 µM) | 6.7 | 0.015 (≈ 0.0396 µM) | – | – | – | – | – | –
Cc1cn(CC[C@](C)(C(=O)NO)S(C)(=O)=O)c(=O)cc1-c1ccccc1 | 8 (≈ 21.1 µM) | 30 | 0.125 (≈ 0.33 µM) | – | – | – | – | – | –
Cc1cc(-c2ccccc2)cc(=O)n1CC[C@](C)(C(=O)NO)S(C)(=O)=O | 4 (≈ 10.6 µM) | 22 | 0.125 (≈ 0.33 µM) | – | – | – | – | – | –
C[C@@](CCn1ccc(-c2ccccc2)c(F)c1=O)(C(=O)NO)S(C)(=O)=O | 1 (≈ 2.61 µM) | 4.9 | 0.015 (≈ 0.0392 µM) | – | – | – | – | – | –
C[C@@](CCn1cc(F)c(-c2ccccc2)cc1=O)(C(=O)NO)S(C)(=O)=O | 0.5 (≈ 1.31 µM) | 2.3 | 0.015 (≈ 0.0392 µM) | 32 (≈ 83.7 µM) | 4 (≈ 10.5 µM) | 8 (≈ 20.9 µM) | 8 (≈ 20.9 µM) | 8 (≈ 20.9 µM) | 4 (≈ 10.5 µM)
C[C@@](CCn1ccc(-c2ccccc2)nc1=O)(C(=O)NO)S(C)(=O)=O | 16 (≈ 43.8 µM) | 57 | 0.5 (≈ 1.37 µM) | – | – | – | – | – | –
C[C@@](CCn1cnc(-c2ccccc2)cc1=O)(C(=O)NO)S(C)(=O)=O | 1 (≈ 2.74 µM) | 8.5 | 0.03 (≈ 0.0821 µM) | 64 (≈ 175 µM) | 4 (≈ 10.9 µM) | 16 (≈ 43.8 µM) | 16 (≈ 43.8 µM) | 16 (≈ 43.8 µM) | 8 (≈ 21.9 µM)
C[C@@](CCn1ncc(-c2ccccc2)cc1=O)(C(=O)NO)S(C)(=O)=O | 32 (≈ 87.6 µM) | > 72 | 1 (≈ 2.74 µM) | – | – | – | – | – | –
C[C@@](CCn1ccc(-c2ccccn2)cc1=O)(C(=O)NO)S(C)(=O)=O | 4 (≈ 10.9 µM) | 60 | 0.25 (≈ 0.684 µM) | – | – | – | – | – | –
C[C@@](CCn1ccc(-c2cccnc2)cc1=O)(C(=O)NO)S(C)(=O)=O | > 64 | > 100 | 2 (≈ 5.47 µM) | – | – | – | – | – | –
C[C@@](CCn1ccc(-c2ccncc2)cc1=O)(C(=O)NO)S(C)(=O)=O | 32 (≈ 87.6 µM) | 39 | 0.5 (≈ 1.37 µM) | – | – | – | – | – | –
COc1ccc(-c2ccn(CC[C@](C)(C(=O)NO)S(C)(=O)=O)c(=O)c2)cn1 | 2 (≈ 5.06 µM) | 6.4 | 0.06 (≈ 0.152 µM) | > 64 | 16 (≈ 40.5 µM) | 32 (≈ 80.9 µM) | 32 (≈ 80.9 µM) | 16 (≈ 40.5 µM) | 8 (≈ 20.2 µM)
Cc1ccn(CC[C@](C)(C(=O)NO)S(C)(=O)=O)c(=O)c1 | 64 (≈ 212 µM) | > 100 | 8 (≈ 26.5 µM) | – | – | – | – | – | –
CC(C)(C)c1ccn(CC[C@](C)(C(=O)NO)S(C)(=O)=O)c(=O)c1 | 8 (≈ 23.2 µM) | 69 | 0.25 (≈ 0.726 µM) | – | – | – | – | – | –
C[C@@](CCn1ccc(C2=CCCCC2)cc1=O)(C(=O)NO)S(C)(=O)=O | 0.5 (≈ 1.36 µM) | 4.1 | 0.03 (≈ 0.0814 µM) | – | – | – | – | – | –
C[C@@](CCn1ccc(C#Cc2ccccc2)cc1=O)(C(=O)NO)S(C)(=O)=O | 0.25 (≈ 0.644 µM) | 1.8 | 0.015 (≈ 0.0386 µM) | > 64 | 2 (≈ 5.15 µM) | 0.5 (≈ 1.29 µM) | 0.25 (≈ 0.644 µM) | 0.125 (≈ 0.322 µM) | 0.06 (≈ 0.154 µM)
C[C@@](CCn1ccc(/C=C/c2ccccc2)cc1=O)(C(=O)NO)S(C)(=O)=O | 0.5 (≈ 1.28 µM) | 3.2 | 0.03 (≈ 0.0768 µM) | – | – | – | – | – | –
C[C@@](CCn1ccc(CCc2ccccc2)cc1=O)(C(=O)NO)S(C)(=O)=O | 2 (≈ 5.1 µM) | 6 | 0.03 (≈ 0.0764 µM) | – | – | – | – | – | –
C[C@@](CCn1ccc(-c2ccccc2F)cc1=O)(C(=O)NO)S(C)(=O)=O | 0.25 (≈ 0.654 µM) | 2.2 | 0.015 (≈ 0.0392 µM) | – | – | – | – | – | –
C[C@@](CCn1ccc(-c2cccc(F)c2)cc1=O)(C(=O)NO)S(C)(=O)=O | 0.5 (≈ 1.31 µM) | 3 | 0.015 (≈ 0.0392 µM) | – | – | – | – | – | –
C[C@@](CCn1ccc(-c2ccc(F)cc2)cc1=O)(C(=O)NO)S(C)(=O)=O | 0.25 (≈ 0.654 µM) | 2.9 | 0.008 (≈ 0.0209 µM) | – | – | – | – | – | –
C[C@@](CCn1ccc(-c2c(F)cccc2F)cc1=O)(C(=O)NO)S(C)(=O)=O | 0.5 (≈ 1.25 µM) | 4.8 | 0.03 (≈ 0.0749 µM) | – | – | – | – | – | –
C[C@@](CCn1ccc(-c2cc(F)cc(F)c2)cc1=O)(C(=O)NO)S(C)(=O)=O | 1 (≈ 2.5 µM) | 3.9 | 0.03 (≈ 0.0749 µM) | – | – | – | – | – | –
